# Entries after “also recorded” stand apart in the source; their conditions may differ.
# How the values were obtained:
# [1] = system: thrombin (IIa)/thrombomodulin (TM) complex; assay: In vitro aPC assay in solution, on human TM expressing HEK293 and on primary endothelial cells; format: cell-based
# Procedure: (§1) Generation of aPC was assayed in 96-well plates as described previously (Slungaard et al. (1994) J. Biol. Chem., 269:25549-25556; Slungaard et al. (1993) J. Clin. Invest., 91:1721-1730). Briefly, thrombomodulin (TM) was mixed with various amounts of PF4 and/or heparin for 10 minutes in assay buffer (final concentration, 20 mM Tris, 100 mM NaCl, 1 mM CaCl2, 0.1% BSA, pH 7.5). Protein C (PC) was added for an additional 10 minutes followed by addition of thrombin (IIa) at a final concentration of either 0.2 or 2 nM and 15 minutes of incubation. All incubations were done at 37° C. Final concentrations of TM and PC were 0.5 nM and 500 nM, respectively.
# To measure aPC formation, HEK-K293 cells stably expressing human TM on their surface cells were allowed to adhere overnight onto 24-well plates (5×10^5 cells/well) in DMEM/F12 media containing 10% FBS (Feistritzer et al. (2006) J. Biol. Chem., 281:20077-20084). Cells were washed twice with DMEM/F12 media followed by Dulbecco PBS. Various concentrations of PF4 or protamine sulfate (PRT) were incubated with cells for 10 minutes at 37° C. followed by the addition of PC and IIa, as described above. After incubation for 45 minutes, aliquots of the reaction mixture were transferred to 96-well plates and quenched by the addition of 1 mM EDTA and 100 nM hirudin. Generation of aPC was measured after the addition of 0.5 mM […] and determination of the initial rate of chromogenic substrate cleavage from absorbance measurements at 405 nm on a Thermomax™ Microtiter Vmax® plate reader (Molecular Devices).
# [2] = system: thrombin (IIa)/thrombomodulin (TM) complex, TM+CS; assay: In vitro aPC generation assay in solution, IIa/TM complex with TM containing chondroitin sulfate side chains (TM+CS, TMCS); format: biochemical, rabbit or human; settings: for increase of aPC generation by PF4 in absence of histones: TMCS 0.5 nM, FIG. 6A; for effect of heparinoid on aPC generation with high doses of PF4 and histones: conditions simulating late sepsis; for effect of heparinoid on aPC generation at low levels of histones: histones 0-10 μg/ml, heparinoid 2, 5 or 10 μg/ml; for effect of heparinoid on aPC generation at low levels of histones / effect of heparinoid on aPC generation at higher levels of histones: FIG. 7; for effect of heparinoid on aPC generation at higher levels of histones: histones >10 μg/ml
# Procedure: as §1
# Generation of aPC was assayed in 96-well plates generally as described above. Briefly, rabbit or human sTMCS or sTM−CS, was mixed with various amounts of histones, PF4 and/or heparinoid for 10 minutes in assay buffer (final concentration, 20 mM Tris, 100 mM NaCl, 1 mM CaCl2, 0.1% BSA, pH 7.5). Final concentrations of TMs were 0.5-40 nM. PC (final concentration, 500 nM) was added for an additional 10 minutes followed by addition of IIa at a final concentration of 0.2 or 2 nM and then incubated for 15 minutes. All incubations were done at 37° C. The reaction was quenched with 1 mM EDTA and 100 nM hirudin. Concentrations of aPC formed in the quenched samples were inferred from initial rate measurements after the addition of 0.5 mM S2366. Initial rates of chromogenic substrate cleavage were determined by measuring absorbance at 405 nm using a ThermoMax™ Microtiter Vmax® plate reader (Molecular Devices; Sunnyvale, Calif.).
# [3] = system: plasma aPC; assay: In vivo aPC generation measured in mouse plasma; settings: for effect of heparinoid on aPC generation after histones: histones 50 mg/kg
# Procedure: Generation of aPC in vivo was assayed in plasma of mice as described (Kowalska et al. (2007) Blood 110:1903-1905). Mice were injected into the jugular vein. After 10 minutes, blood was drawn into sodium citrate/benzamidine (final concentration, 5 mM/50 mM, respectively), centrifuged for 10 minutes at 4500 g at 4° C., and plasma was frozen. Plasma aPC levels were subsequently measured by capture ELISA using antimouse aPC antibody and chromogenic substrate Spectrozyme® PCa (American Diagnostica) (Li et al. (2005) J. Thromb. Haemost., 3:1351-1359).
# In vivo aPC generation was assayed in plasma of mice generally as described above. […] After 10 minutes, blood was drawn into sodium citrate/benzamidine (final concentration 5 mM/50 mM, respectively), centrifuged for 10 minutes at 5,000 rpm at 4° C. and plasma frozen. […] Some animals were pre-injected with UFH or ODSH 10 minutes before injection of histones. Plasma aPC levels were measured by capture ELISA (Li et al. (2005) J. Thromb. Haemost., 3:1351-1359) using an anti-mouse aPC antibody and chromogenic substrate Spectrozyme® PCa (American Diagnostica; Stamford, Conn.).
# [4] = aPTT in mouse plasma after injection of heparinoids with or without histones; format: in vivo; settings: for severe prolongation of aPTT in presence of high (sub-lethal and lethal) concentrations of histones: heparinoid 50 mg/kg 10 minutes before histones, WT mice, FIG. 9B
# Procedure: Blood was collected from cut tails 20 minutes after injection of heparinoids and aPTT measured in plasma. FIG. 9A: WT mice were injected with control buffer (at 0 mg/kg heparanoid concentrations) or UFH (dark squares) or ODSH (open triangles) at the concentrations indicated. FIG. 9B: WT mice were injected with control buffer (open circles) or 50 mg/kg of either UFH (black square) or ODSH (gray triangles) 10 minutes before injection of increasing concentrations of histones. N=5 mice per data point. Mean±1 SD are shown.
# [5] = system: mice; assay: Histone-induced lethality in mice; format: in vivo, mouse; settings: heparinoid 50 mg/kg, histones 75 mg/kg, WT mice
# [6] = system: antithrombin; settings: Fryer et al. (1997); cited from earlier work
# [7] = WT mice, heparinoid 50 mg/kg, FIG. 8
substance,measurement,setting,value
platelet factor 4 [PF4],PF4 concentration at peak of bell-shape curve of aPC generation,[1]; FIG. 1A,around 50 μg/ml
same,maximal increase of aPC generation,[1]; at peak of biphasic curve,~6 times
same,PF4 concentration at peak of biphasic curve of aPC generation,"[1]; in solution, human TM expressing HEK293, primary endothelial cells",around 25 μg/ml
same,potency on aPC activity compared with histones,[2]; FIGS. 2C and 2D,more potent than histones
same,increase of aPC generation by PF4 in absence of histones,[2]; PF4 3 μg/ml,> 3 fold
same,increase of aPC generation by PF4 in absence of histones,[2]; PF4 25 μg/ml,around 7 fold
same,effect of concurrently injected PF4 on plasma aPC,"[3]; PF4 knockout mice, PF4 5 mg/kg with IIa and histones, FIG. 4, 5 mg/kg",further increases the generation of aPC in plasma; also recorded: higher aPC levels
"2-O, 3-O desulfated heparin [ODSH]",severe prolongation of aPTT in presence of high (sub-lethal and lethal) concentrations of histones,[4],reversed
same,dose required to markedly prolong the aPTT,"[4]; non-histone treated mice, FIG. 9A",the same as needed to reverse histone lethality
same,effect of heparinoid on histone lethality,[5],prevent these deaths
same,effect of heparinoid on aPC generation with high doses of PF4 and histones,[2],enhanced aPC generation
same,effect of heparinoid on aPC generation at low levels of histones,[2],inhibited aPC generation
same,effect of heparinoid on aPC generation at higher levels of histones,[2],restored high levels of aPC generation
same,"antithrombin activity, fold less",[6],~60 fold
same,effect of heparinoid on aPC generation after histones,[3]; [7],suppressed detectable aPC generation
same,aPC levels in mice pretreated with heparinoid,"[3]; heparinoid 50 mg/kg, histones 75 mg/kg, WT mice, FIG. 8",aPC levels were raised
protamine sulfate [PRT],shape of aPC generation versus protamine sulfate concentration,[1]; FIG. 1C,bell-shape curve
heparin,effect on aPTT in mice not exposed to histones,"[4]; concentrations 10 and 100-times lower than needed to reverse histone lethality, FIG. 9A",marked prolongation of aPTT
same,severe prolongation of aPTT in presence of high (sub-lethal and lethal) concentrations of histones,[4],not by the UFH
same,effect of heparinoid on histone lethality,[5],prevent these deaths
same,effect of heparin on aPC generation at low concentrations of PF4,"[1]; PF4 12.5 μg/ml, FIG. 1B",decreases aPC generation
same,effect of heparin on aPC generation at an excess of PF4,"[1]; PF4 400 μg/ml, FIG. 1B",shifts the curve back to the optimal PF4 concentration
same,effect of heparin on aPC generation at lower than optimal protamine sulfate concentration,"[1]; PRT 1 μg/ml, FIG. 1D",only decreases aPC generation
same,effect of heparin on aPC generation at higher concentrations of PRT,"[1]; PRT 20 μg/ml, FIG. 1D",a peak and then a decrease in aPC
same,effect of added heparin on histone curve for aPC generation,[1]; absence or presence of PF4,shifted the curve for aPC generation to the right
same,effect of heparin in absence of the GLA-domain of Protein C,"[2]; Gla-domainless Protein C, TM+CS, FIG. 3E",did not have any effect
same,effect of heparin on histones/PF4 mediated aPC generation,"[2]; TM+CS, PF4 50 μg/ml, histones 75 μg/ml, FIGS. 3B and 3C",first enhances aPC generation before a decrease in aPC generation
same,effect of UFH on peak aPC generation from histone plus PF4,"[2]; UFH 5 μg/ml, PF4 50 μg/ml, FIG. 6C",shifted to the right
same,effect of heparinoid on aPC generation with high doses of PF4 and histones,[2],enhanced aPC generation
same,effect of heparinoid on aPC generation at low levels of histones,[2],inhibited aPC generation
same,effect of heparin on aPC generation at below peak concentration of histones,"[2]; histones 3 μg/ml, TM+CS, FIG. 2F",only decreased aPC generation
same,effect of heparinoid on aPC generation at higher levels of histones,[2],restored high levels of aPC generation
same,heparin concentration of optimal effect on aPC generation,"[2]; histones present in excess (75 μg/ml), TM+CS, FIGS. 2E and 2F",5 μg per ml
same,effect of heparinoid on aPC generation after histones,[3]; [7],suppressed detectable aPC generation

# From patent US20140357563A1, “Compositions and Methods for the Generation of Activated Protein C and Methods of Use Thereof” (The Children's Hospital of Philadelphia, priority 2011, published 2014)
